“And” between values parts separate entries of the source, which are not always exact repeats. Identical values can stand only once.
Experiments:
egg-laying hens [1] = experiment: First test: aqueous solution of acetylcysteine given to egg-laying hens as drinking water; assay type: in vivo, chicken (Julia Light in test zone, Julia in control zone)
Procedure: The first test was performed by giving an aqueous solution of acetylcysteine to egg-laying hens as drinking water.
Adult egg-laying hens were selected as the target animal for the test because data is readily collected. The point of time when the test was started was at off-peak times in egg laying.
Two breeds Julia and Julia Light were used.
For this reason, in the main test, Julia having a low feed conversion rate (high profitability) was raised in the control zone and Julia Light having a high feed conversion rate (low profitability) was raised in the test zone.
The number of hens in the test zone was 33412 Julia Light hens and that in the control zone was also 33412 Julia hens.
The test zone and the control zone were placed in Akagiyama Farm run by Takai Poultry Farm Y.K., where chickens are actually raised, to perform the test in an actual situation.
A windowless house was used because differences between individuals and differences in heath conditions are small.
The house was provided with a cage having a width of 380 mm, a length of 500 mm, and a height of 380 mm.
To avoid application of heat stress to the target chickens for the test, the test was performed for 166 days from October 21, Heisei 27 to April 3, Heisei 28. At a temperature inside the house of more than 27° C., the feed demand (feed intake) of the chickens will reduce due to heat stress.
A Kumiai Blend Feed “Akagikougen 17 Up for adult chicken” shown in FIG. 1 was given from October 21, Heisei 27 to February 13, Heisei 28, and a Kumiai Blend Feed “Akagikougen 16 Up for adult chicken” shown in FIG. 2 was given from February 23 to April 3, Heisei 28.
As the agent for improving a feed conversion rate, the agent for improving a survival rate, or the agent for improving the number of eggs laid by an egg-laying hen, an aqueous solution of acetylcysteine was given to Julia Light in the test zone as drinking water through the nipples disposed at both ends of the ceiling of the cage.
The concentration of acetylcysteine in drinking water was prepared such that 1 mg/day/Kg acetylcysteine was given to the egg-laying hens. Specifically, 3.3 L per day of a stock solution having an acetylcysteine concentration of 10% was used for 33412 Julia Light hens having a weight of about 2 Kg.
The frequency to give the agent for improving a feed conversion rate, the agent for improving a survival rate, or the agent for improving the number of eggs laid by an egg-laying hen was one time for 5 days.
Water not containing agent for improving a feed conversion rate, the agent for improving a survival rate, or the agent for improving the number of eggs laid by an egg-laying hen was given to Julia in the control zone through the nipple.
The lower columns in FIG. 3 show the difference in the number of deaths, the difference in the number of eggs laid, the average feed demand, the average egg production rate, and the average egg weight between the target chickens for the test and the control during the test period.
A smaller number of deaths and cullings of the target chickens for the test are preferred. A larger number of eggs laid are preferred. A smaller feed demand (feed intake) is preferred although it should be balanced with the egg production rate and the egg weight. A larger egg production rate is preferred. A larger egg weight and a larger average egg weight are preferred. The feed conversion rate of the target egg-laying hen for the test is calculated as a ratio of the total weight of eggs laid to the feed demand as described above. The feed demand is calculated as a product of the feed intake, the number of birds, and the survival rate. The total weight of eggs laid is calculated as a product of the number of birds, the egg production rate, and the average egg weight.
The feed conversion rate of the target egg-laying hen for the test is represented by a ratio of the amount of feed given to the total weight of eggs laid as described above. […]

egg-laying hens [2] = experiment: Second test: feed with powdery acetylcysteine added given to egg-laying hens; assay type: in vivo, chicken (Julia Light); conditions: for egg production rate: 28 days, 42- to 46-week old hens
Procedure: The second test was performed by giving a feed, to which powdery acetylcysteine was added, to egg-laying hens.
120 individuals having an egg production rate of 82% or more 4 weeks before the start of the preparative raising were selected from Julia Light birds (281-day old when partitioned) which were being raised in the scientific feed research center of Japan Scientific Feeds Association to be fed.
Three zones were set: a control zone where a basic feed not having acetylcysteine added thereto was given, a first test zone (standard zone) where a feed comprising a basic feed to which 0.0014% acetylcysteine was added was given, and a second test zone (5-fold zone) where a feed comprising a basic feed to which 0.0072% acetylcysteine was added was given.
Four groups were assigned to each zone, and the basic feed was given for 14 days to accustom the tested hens to the test environment. After that, the feed corresponding to each zone was given for 4 weeks.
Also in the second test, a standard daily intake of acetylcysteine per bird is planned to be 1 mg per weight (Kg) of a tested hen. In the main test, from the weight at the start of preparative raising and the feed intake one week after the start of preparative raising, assuming that the weight of a tested hen was 1580 g and a daily feed intake per bird was 140 g, the amount of acetylcysteine to be added to the basic feed was set from the following expression: standard zone: amount (%) of acetylcysteine to be added to the basic feed=weight (1580 g)×acetylcysteine intake (1 mg/weight (Kg))/feed intake (114 g/day/bird)×100 5-fold zone: amount (%) of acetylcysteine to be added to the basic feed=weight (1580 g)×acetylcysteine intake (5 mg/weight (Kg))/feed intake (114 g/day/bird)×100 <Management of Raising>
The tested hens were individually managed in a terraced individual cage for egg-laying hens disposed in an open chicken house. A set of 10 continuous cages was used for each group, and a single empty cage was disposed between the zones. The feed and drinking water were continuously given. The light beams were controlled such that the bright period was 14 hours and the dark period was 10 hours.
A variation in weight, the average egg weight, the daily egg production amount, the feed intake, and the feed efficiency were subjected to analysis of variance by a method of one-way analysis of variance using the given feed as a factor, and the superiority in each interval was examined. The egg production rate was subjected to arcsine transformation, and the superiority of the difference between intervals was similarly examined. The culling hens were excluded from the average back to the start of the test, and the results of egg production and the like were summarized. The egg production rate during the test period was subjected to rejection test, and the individuals whose egg production rate was determined as abnormal were also excluded from the average back to the start of the test.
The scientific feed research center of Japan Scientific Feeds Association (821 Yoshikura, Naritashi, Chiba)
The test was performed for 42 days from September 21 to November 2, Heisei 28. The 14 days from September 21 to October 5, Heisei 28 was the preparative test period, and the 28 days from October 6 to November 2, Heisei 28 was the main test period.

[3] = test system: chickens for meat (broilers); experiment: Third test: feed with powdery acetylcysteine added given to chickens for meat (broilers); assay type: in vivo, chicken (Chunky broiler)
Procedure: A third test was performed by giving chickens for meat (broilers) a feed having powdery acetylcysteine added thereto.
300 (150 males and 150 females) broiler-dedicated breed day-old chicks (broilers available from Nippon Chunky Co., Ltd.) are fed. As the chicks, about 350 birds (175 males and 175 females) were introduced, and individuals not having any abnormal health condition and having a close weight were selected and used in the test.
The nutritional value of this basic feed is adjusted so as to be lower than the index.
The concentration of acetylcysteine added to the basic feed was determined based on the aimed results for Chunky broiler (2014).
Three groups were assigned to the control zone and the test zone, respectively, and the chicks were raised until 49-day old.
Each flock of tested chicks was raised in an electrically heated windowless chicken house of a forced ventilation (air exhaust) type.
For vaccination, chicks vaccinated with Marek's vaccine and live fowl pox vaccine when born were introduced, and were additionally vaccinated with NB live vaccine at 4-day old and 15-day old and with live fowl pox vaccine at 21-day old.
The feed and drinking water were continuously given.

chickens for meat = conditions: 1% glycine in feed; cited from earlier work
[4] = 1 mg/day/Kg in drinking water, 166 days

Structure (SMILES): CC(=O)N[C@@H](CS)C(=O)O [acetylcysteine, N-acetyl-L-cysteine]
- decrease of average egg weight in test zone compared to control zone (egg-laying hens [1]; [4]): 2.16%
- increase of average egg production rate in test zone compared to control zone (egg-laying hens [1]; [4]): 1.13%
- increase of number of eggs laid in test zone compared to control zone (egg-laying hens [1]; [4]): 1.67%
- proportion of the feed conversion rate in the test zone to that in the control zone (egg-laying hens [1]; [4]): 96.50% and 96.48%
- reduction (improvement) of feed conversion rate in test zone compared to control zone (egg-laying hens [1]; [4]): 3.52%
- reduction of number of deaths and cullings in test zone compared to control zone (egg-laying hens [1]; [4]): 20%
- feed conversion rate in the test zone (egg-laying hens [1]; 1 mg/day/Kg in drinking water, given one time for 5 days, 166 days, control zone 1.99): 1.92
- reduction of feed demand (egg-laying hens [1]; as shown in FIG. 3, test zone vs control zone): 4.67%
- improvement of feed conversion rate in test zone vs control zone in consideration of the preparative test (egg-laying hens [1]; corrected for 1.59% increase in 20-day preparative test without agent): 5.11%
- surface roughness of egg shells, visual observation, vs eggs of control zone (egg-laying hens [1]; eggs collected in the test zone): finer and smoother surfaces
- improvement in feed conversion rate in the test of the old hens in the chicken farm (egg-laying hens [1]; old hens, chicken farm): more than 5%
- calcium in solid products of feces washed with water (egg-laying hens [1]; test zone, calcium was found in the control zone): no calcium was found
- weight at the end of the test relative to control zone (egg-laying hens [2]; 5-fold zone, 0.0072% acetylcysteine in feed, 4 weeks): approximately equal
- egg production rate (egg-laying hens [2]; 5-fold zone, 0.0072% in feed): 98.6%
- feed conversion rate, higher than that in the control zone (egg-laying hens [2]; feed contained 0.2% DL-methionine, zone not specified): 4.43%
- weight at the end of the test, larger than that in the control zone (egg-laying hens [2]; standard zone, 0.0014% acetylcysteine in feed, 4 weeks): 0.5%
- egg production rate (egg-laying hens [2]; standard zone, 0.0014% in feed): 99.2%
- feed conversion rate in the test zone relative to that in the control zone ([3]; 1 mg/Kg daily in feed, until 49-day old): 100.55%
- feed efficiency in the test zone relative to that in the control zone ([3]; Weeks 4 to 7 of the second period): 101.54%
- number of deaths and cullings ([3]; test zone, control zone 3 birds, Week 6 (sudden death syndrome)): 1 bird
- growth rate ([3]; test zone, control zone 98%): 99.3%
- feed efficiency in the test zone relative to that in the control zone ([3]; three weeks of the first period): 99.32%
- feed efficiency in the test zone relative to that in the control zone ([3]; whole period, until 49-day old): 100.93%

Structure (SMILES): NCC(=O)O [glycine]
- weights of chickens of 7-day old vs without giving glycine (chickens for meat): smaller

Reference: patent US11896032B2, “Agent for improving feed conversion rate, agent for improving survival rate, agent for improving the number of eggs laid by egg-laying hen, and method of giving same to animals, and feed” (Tsubakisangyo Co., Ltd., priority 2016, dated 2024)
